Laboratory results from patent US20090318357A1, “Molecules Preferentially Associated with Effector T Cells or Regulatory T Cells and Methods of Their Use” (Tolerx, Inc., priority 2002, published 2009).

Key:
Type in all cases: cell-based, human
[1] = test system: anti-CD3/anti-CD28 stimulated PBLs; experiment: Transcription factor (FOXP3, Tbox21, GATA3) mRNA expression by Real-Time PCR in activated PBL
Description: This example describes the effect of TGFβ1 on the expression levels of Tbox 21, GATA3 and FOXP3 expression in anti-CD3/anti-CD28 stimulated PBLs. Real-time PCR was used to quantitate the levels of transcription factor mRNA in the presence and absence of TGFβ1.
PBL were stimulated for 72 hours with anti-CD3/anti-CD28 in the presence or absence of TGFβ1 and total RNA was extracted using a QiganRNeasy Mini Kit according to manufacturer's instructions. RNA was stored at minus 80° C.
cDNA was prepared from RNA using the Applied Biosystems High-Capacity cDNA Archive Kit according to manufacturer's instructions.
One μg cDNA was amplified using Applied Biosystems Assays-on-Demand™ Gene Expression products (i.e., TaqMan Universal PCR Mastermix and Assay-on-Demand solution, including marker specific primers) according to the following protocol, in accordance with manufacturer's instructions. Probe/primer reagents for FOXP3, GATA3 and Tbox21 were obtained from Applied Biosystems via the Assay on Demand program.
For the QPCR reaction, 2.5 μl Assay on Demand reagent (Applied Biosystems) were added to 25 μl TaqMan Master Mix™ and samples brought to a total volume of 50 μl with RNAse-free water. PCR reactions were run under the following conditions: 50° C. for 1 minute, 95° C. for 10 minutes and 40 cycles of 95° C. for 15 seconds followed by 60° C. for 1 minute. 18 sRNA or β-actin was run with every assay as a control; 2.5 μl of primer/probe mix, 25 μl of TaqMan MasterMix™, 22.5 μl RNAse-free water. Reactants were detected using an Applied Biosystems QPCR instrument (i.e., ABI Program 7000 SDS Sequence Detection System). The relative expression of the transcription factors for both TGFβ1-treated and untreated stimulated PBLs was determined. Relative expression was calculated assuming that the levels of transcription factor mRNA in stimulated PBL in the absence of added cytokines was 100%. […]

[2] = test system: Th1 cells; experiment: Cytokine production in differentiated Th1 cells (Searchlight ELISA); conditions: percent of untreated control, 7-12 days
Description: (§1) Differentiated cell lines were produced from cells prepared from human cord blood or peripheral blood CD4+CD45RA+ naïve T cells by a variety of methods, including flow cytometry and magnetic bead separations. Purity of the starting populations was >95%. Cells were then stimulated by CD3 and CD28 antibodies in RPMI 1640 with 10% FCS and 1% Human AB serum with defined mixtures of cytokines and neutralizing antibodies to cytokines to produce the differentiated cell types. Th1 cells were produced by culture with IL12 (62 U/ml) and anti-IL4 (0.2 ug/ml); Th2 cells were produced by culture in IL4(145 U/ml) and anti-IL12 (10 ug/ml) and anti-IFNγ (10 ug/ml); and regulatory T cells were produced by culture in TGFβ (32 U/ml), IL9 (42 U/ml), anti-IL4 (10 ug/ml) and anti-IL12 (10 ug/ml) and anti-IFNγ (10 ug/ml). (Note: anti-IL12 was not used in all experiments). All cultures were supplemented with IL2 (65 U/ml) and IL15 (4500 U/ml). Cells were split into larger culture dishes as warranted by cell division. At the conclusion of one round of cell differentiation (7-12 days), cells were harvested for preparation of total RNA for use in the gene chip experiments.
(§2) Differentiated cells were prepared as described in Example 1. Varying concentrations (0.1 μM, 1.0 μM and 10 μM) of Thioperamide was added at the time of plating. At the conclusion of one round of cell differentiation (7-12 days), cells were assayed for the production of the cytokines, IL-2, IL-4, IL-5, IL-10, IL-12-p70, IL-13, IFN-γ, TNF-alpha, and TGFβ1, by Searchlight™ technology, a chemiluminescent enzyme-linked immunoabsorbant assay (ELISA) according to the manufacturer's instructions, commercially available from Pierce Biotechnology.
(§3) Data are plotted as a percent of control (untreated) assuming that the levels of cytokine production in stimulated differentiated cells in the absence of Thioperamide is 100%.
(§4) Differentiated cells were prepared as described in Example 1. Varying concentrations (1.0 μM, 10.0 μM and 100 μM) of Serotonin was added at the time of plating. At the conclusion of one round of cell differentiation (7-12 days), cells were assayed for the production of the cytokines, IL-2, IL-4, IL-5, IL-10, IL-12-p70, IL-13, IFN-γ, TNFα, and TGFβ1, by ELISA as described in Example 5.
(§5) Data are plotted as a percent of control (untreated) assuming that the levels of cytokine production in stimulated PBL in the absence of Serotonin is 100%.
as §4, with “(0.1” for “(1.0”, “1.0” for “10.0”, “10.0” for “100”, “Rolipram or Zardaverine” for “Serotonin”
(§6) The results of the effect of Rolipram on the production of cytokines is shown in FIGS. 11A, 11B, and 11C, and the results of the effect of Zardaverine on the production of cytokines is shown in FIGS. 12A, 12B, and 12C. Data are plotted as a percent of control (untreated) assuming that the levels of cytokine production in stimulated PBL in the absence of rolipram or zardaverine is 100%.

[3] = test system: Th2 cells; experiment: Cytokine production in differentiated Th2 cells (Searchlight ELISA); conditions: percent of untreated control, 7-12 days
Description: as §1, §2, §3, §4, §5
as §4, with “(0.1” for “(1.0”, “1.0” for “10.0”, “10.0” for “100”, “Rolipram or Zardaverine” for “Serotonin”
as §6

[4] = test system: TGFβ1-derived Treg cells; experiment: Cytokine production in TGFβ1-derived Treg cells (Searchlight ELISA); conditions: percent of untreated control, 7-12 days
Description: as §1, §2, §3, §4, §5
as §4, with “(0.1” for “(1.0”, “1.0” for “10.0”, “10.0” for “100”, “Rolipram or Zardaverine” for “Serotonin”
as §6

[5] = test system: Th1 cells; experiment: Proliferation of differentiated Th1 cells (cell count); conditions: re-stimulated with anti-CD3 and anti-CD28, three days, cells counted; vs untreated cells
Description: (§7) Differentiated cell lines were produced from cells prepared from human cord blood or peripheral blood CD4+CD45RA+ naïve T cells by a variety of methods, including flow cytometry and magnetic bead separations. Purity of the starting populations was >95%. Cells were then stimulated by CD3 and CD28 antibodies in RPMI 1640 with 10% FCS and 1% Human AB serum with defined mixtures of cytokines and neutralizing antibodies to cytokines to produce the differentiated cell types. […]
(§8) Differentiated cell types were prepared as described in Example 1 then cultured in the presence of anti-CD3 and anti-CD28 for seven days. Cells were subsequently re-stimulated with anti-CD3 and anti-CD28, with the addition of Serotonin at 1, 10 and 100 μM, for three days at which time the cells were counted and the data were plotted as a percent of control (untreated cells).
as §8, with “anti-CD28 (as described in Example 7),” for “anti-CD28,”, “either Rolipram or Zardaverine” for “Serotonin”, “0.1 μM, 1.0 μM and” for “1,”, “μM” for “and 100 μM,”

[6] = test system: Th2 cells; experiment: Proliferation of differentiated Th2 cells (cell count); conditions: cells counted
Description: as §7, §8
as §8, with “anti-CD28 (as described in Example 7),” for “anti-CD28,”, “either Rolipram or Zardaverine” for “Serotonin”, “0.1 μM, 1.0 μM and” for “1,”, “μM” for “and 100 μM,”

[7] = test system: TGFβ1-derived Treg cells; experiment: Proliferation of TGFβ1-derived Treg cells (cell count); conditions: cells counted; for proliferation of TGFβ1-derived Treg cells: re-stimulated with anti-CD3 and anti-CD28, three days, vs untreated cells
Description: as §1, §8
as §8, with “anti-CD28 (as described in Example 7),” for “anti-CD28,”, “either Rolipram or Zardaverine” for “Serotonin”, “0.1 μM, 1.0 μM and” for “1,”, “μM” for “and 100 μM,”

[8] = mRNA, among the concentrations tested
[9] = mRNA, over the concentrations tested, control = 100%
[10] = PBL stimulated 72 hours with anti-CD3/anti-CD28, mRNA, FIG. 1

Compound | FOXP3 expression relative to control [1, 9] | GATA3 expression relative to control [1, 9] | Tbox21 expression relative to control [1, 9] | production of IL-10 [2] | production of IL-4 [3] | production of IL-5 [3] | production of IL-13 [3] | production of TGFβ1 [4] | proliferation of Th1 cells [5] | proliferation of TGFβ1-derived Treg cells [7] | production of IFN-gamma [2] | production of TNF-alpha [2] | production of IL-10 [3] | production of IFN-gamma [4] | production of IL-2 [4] | further results
CC(C)Oc1ccc2c(=O)c3cc(C(=O)O)ccc3oc2c1 [AH6809] | trend toward increasing | unchanged | – | – | – | – | – | – | – | – | – | – | – | – | – | Tbox21 expression relative to untreated control ([1]; at 0.1 μM): increased; Tbox21 expression relative to untreated control ([1]; at 10 μM): decreased; concentration of maximal FOXP3 expression [1, 8]: 0.1 µM
COc1ccc(C2CNC(=O)C2)cc1OC1CCCC1 (stereo not drawn) [Rolipram] | increased expression | increased expression | neither of these inhibitors had more than a modest effect | significantly reduced | significantly increased | significantly increased | significantly increased | significantly increased | reduce | reduce | – | – | – | – | – | proliferation of Th2 cells ([6]; re-stimulated with anti-CD3 and anti-CD28, three days, vs untreated cells): reduce; proliferation of TGFβ1-derived Treg cells compared with Th1 and Th2 cells ([7]; 0.1, 1.0 and 10 μM, three days): may have been more strongly affected
NCCc1c[nH]c2ccc(O)cc12 [Serotonin] | increase | increase | increase | significantly reduced | significantly reduced | significantly reduced | significantly reduced | significantly reduced | no proliferative effect | no proliferative effect | significantly reduced | significantly reduced | no effect | significantly reduced | significantly reduced | concentration of maximal GATA3 induction [1, 8]: 10.0 µM; concentration of maximal Tbox 21 induction [1, 8]: 1.0 µM; production of IL-2 [2]: significantly reduced; production of IL-12 [2]: significantly reduced; increase of proliferation of Th2 cells compared to untreated control cells ([6]; at each concentration tested (1, 10 and 100 μM), three days): 50%
S=C(NC1CCCCC1)N1CCC(c2cnc[nH]2)CC1 [Thioperamide] | – | – | relatively unchanged | – | significantly increased | significantly increased | significantly increased | significantly increased | – | – | significantly induce | significantly induce | significantly reduced | significantly increased | significantly increased | FOXP3 expression relative to control ([1]; at 10 μM): moderate increase; GATA3 expression relative to control ([1]; at 10 μM): moderate increase; production of IL-13 [2]: significantly reducing; production of IL-4 [4]: significantly reduced; production of IL-10 [4]: significantly increased
TGFβ1: Transforming growth factor, beta 1; secreted protein added to stimulated PBL | – | – | – | – | – | – | – | – | – | – | – | – | – | – | – | FOXP3 expression relative to an untreated control [1, 10]: approximately 2.5 fold; GATA3 expression relative to an untreated control [1, 10]: approximately 2 fold
